From ChEMBL document CHEMBL3758166, “Fragment-based discovery of DNA gyrase inhibitors targeting the ATPase subunit of GyrB” (Bioorg Med Chem Lett, 2016) come the findings set out here.

One test has as its target DNA gyrase subunit B (Staphylococcus aureus, UniProt P0A0K8). The test is described as follows: Binding affinity to full length Staphylococcus aureus GyrB by STD-NMR spectroscopic analysis.
The next test concerns the target DNA gyrase (Staphylococcus aureus, UniProt P0A0K8+P20831). The test is described as follows: Inhibition of Staphylococcus aureus DNA gyrase ATPase activity using pBR322 DNA as substrate after 30 mins by fluorescence polarization assay. Type of test: protein-complex assay. For orientation: Fluorescence polarisation rises when a labelled molecule tumbles more slowly, as on binding a larger partner.

The nature of test [1]: Binding affinity to Escherichia coli ParE by STD-NMR Spectroscopic analysis. The following applies: for pIC50: read-out: IC50.

pIC50: −log10 of the molar value.

For orientation: pIC50 means −log10 of the IC50, conventionally taken in molar units.

Sequence of DNA gyrase (P0A0K8 whole entry): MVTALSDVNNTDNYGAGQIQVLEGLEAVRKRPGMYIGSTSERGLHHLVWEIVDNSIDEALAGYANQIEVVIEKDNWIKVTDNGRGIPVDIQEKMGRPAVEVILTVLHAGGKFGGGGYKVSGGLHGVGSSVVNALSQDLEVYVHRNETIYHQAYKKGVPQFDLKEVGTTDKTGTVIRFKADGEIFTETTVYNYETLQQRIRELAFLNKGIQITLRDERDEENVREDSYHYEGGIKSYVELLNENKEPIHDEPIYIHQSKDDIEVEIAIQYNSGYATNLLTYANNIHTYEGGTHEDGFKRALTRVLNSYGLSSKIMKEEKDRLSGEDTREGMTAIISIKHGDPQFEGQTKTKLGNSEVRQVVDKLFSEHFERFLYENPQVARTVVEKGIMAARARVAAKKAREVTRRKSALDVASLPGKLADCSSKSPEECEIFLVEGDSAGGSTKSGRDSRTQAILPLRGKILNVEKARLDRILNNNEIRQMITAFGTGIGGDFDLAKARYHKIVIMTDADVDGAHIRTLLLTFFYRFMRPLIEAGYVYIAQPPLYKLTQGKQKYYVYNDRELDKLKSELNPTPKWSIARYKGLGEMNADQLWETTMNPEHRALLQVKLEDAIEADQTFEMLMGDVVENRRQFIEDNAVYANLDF
Sequence of DNA gyrase (P20831 whole entry): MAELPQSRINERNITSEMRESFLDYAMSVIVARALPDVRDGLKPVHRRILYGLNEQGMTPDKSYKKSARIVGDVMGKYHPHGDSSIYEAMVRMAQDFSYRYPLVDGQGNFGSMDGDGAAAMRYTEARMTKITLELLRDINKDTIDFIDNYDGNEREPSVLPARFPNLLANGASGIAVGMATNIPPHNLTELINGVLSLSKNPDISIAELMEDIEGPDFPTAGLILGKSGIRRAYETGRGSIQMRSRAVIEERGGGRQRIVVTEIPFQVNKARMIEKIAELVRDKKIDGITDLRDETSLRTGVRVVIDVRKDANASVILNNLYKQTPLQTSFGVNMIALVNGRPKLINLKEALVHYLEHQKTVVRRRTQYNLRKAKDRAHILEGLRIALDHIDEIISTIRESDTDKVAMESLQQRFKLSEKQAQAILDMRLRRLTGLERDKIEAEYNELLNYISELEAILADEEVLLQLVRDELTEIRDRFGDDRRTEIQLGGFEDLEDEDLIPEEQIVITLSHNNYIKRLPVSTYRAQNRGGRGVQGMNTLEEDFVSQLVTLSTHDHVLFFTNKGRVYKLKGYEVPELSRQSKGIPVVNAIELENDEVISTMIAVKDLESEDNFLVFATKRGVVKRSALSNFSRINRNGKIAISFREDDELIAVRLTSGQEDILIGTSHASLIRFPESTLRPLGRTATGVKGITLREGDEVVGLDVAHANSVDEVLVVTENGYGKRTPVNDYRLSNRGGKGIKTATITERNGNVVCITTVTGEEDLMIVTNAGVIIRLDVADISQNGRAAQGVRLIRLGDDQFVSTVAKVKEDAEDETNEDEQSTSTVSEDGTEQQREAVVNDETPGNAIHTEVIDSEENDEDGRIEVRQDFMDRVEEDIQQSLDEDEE
Sequence of DNA gyrase subunit B (P0A0K8 whole entry): as the sequence (P0A0K8 whole entry) above

As for `O=c1ccc2c(-c3cnc(-c4cccnc4)s3)n[nH]c2[nH]1`, the pIC50 at DNA gyrase subunit B is 4.30; on DNA gyrase it was 6.58.

Turning to `Cc1n[nH]c2c1C(c1ccccc1F)CC(=O)N2` (configuration not stated), the pIC50 at DNA gyrase subunit B was 3.08. Moreover, the IC50 entry in test [1] is reported as “Not Active”.

With `O=C1Nc2ccccc2/C1=C\c1cccnc1`, the pIC50 on DNA gyrase subunit B is 3.08; in test [1] it was 4.30.

With `O=c1[nH]cnc2scc(-c3cccs3)c12`, at DNA gyrase subunit B, the negative-log IC50 (pIC50) was 4.30.

`Nc1nc(O)cc(-c2ccccc2)n1`: the pIC50 at DNA gyrase subunit B is 4.30. In addition, the IC50 entry in test [1] was “Not Active”.

`Cc1cc(=O)[nH]c2[nH]nc(-c3cnc(-c4cccnc4)s3)c12`: the values for the pIC50 on DNA gyrase subunit B and against DNA gyrase were 4.30 and 5.49, respectively.

`CCCC(=O)Nc1sccc1C(N)=O`: the pIC50 (on DNA gyrase subunit B; in test [1]) was 4.30 throughout.

With `O=c1cc(-c2ccccc2)c2c(-c3cnc(-c4cccnc4)s3)n[nH]c2[nH]1`, the pIC50 on DNA gyrase subunit B is 4.30; on DNA gyrase, 5.88.

`Cc1cc(O)[nH]c2nnc(-c3ccccc3)c1-2` gave a pIC50 at DNA gyrase subunit B of 3.08. In addition, the IC50 result in test [1] is listed as “Not Active”.
